Experimental data taken from PubChem BioAssay (NCI).
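Step 1: Grow cells in 96-well plates. Step 2: Expose to compound for 48 hours at 5 concentrations. Step 3: Interpolate endpoints linearly; if unreached, use highest concentration. Here, GI50 denotes the concentration required for 50% inhibition of growth. TGI marks complete inhibition of growth.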 Where a SMILES comes first, the peptide text is derived from it. [ ]: non-standard residue; d: D form. The star is where a group is joined. Tyr(3-Br) = N[C@@H](Cc1ccc(O)c(Br)c1)C(=O)O; Boc = CC(C)(C)OC(=O)*

Assays:
Assay in all cases: growth of human tumour cells (NCI), 48 h
SK-MEL-5 melanoma = system: SK-MEL-5 melanoma
HOP-62 NSCLC = system: HOP-62 NSCLC
U251 CNS = system: U251 CNS
SK-MEL-28 melanoma = system: SK-MEL-28 melanoma
HCC-2998 colon = system: HCC-2998 colon

Row | SMILES | TGI (SK-MEL-5 melanoma) [µM] | TGI (HOP-62 NSCLC) [µM] | TGI (U251 CNS) [µM] | TGI (SK-MEL-28 melanoma) [µM] | TGI (HCC-2998 colon) [µM] | GI50 (SK-MEL-5 melanoma) [µM] | GI50 (HOP-62 NSCLC) [µM] | GI50 (U251 CNS) [µM] | GI50 (SK-MEL-28 melanoma) [µM]
1 | Oc1ccccc1C=Nc1ccc(-c2nc3ccccc3[nH]2)cc1 | > 100 | > 100 | > 100 | > 100 |  |  |  |  | 
2 | CCOc1ccc(NC(=O)/C(=N\NC(C)(C)C)C2C(=O)Nc3ccccc3S2=O)cc1 (stereo not drawn) | > 100 | > 100 | > 100 | > 100 | > 100 |  |  |  | 
3 | COc1cc(C)cc2c1c(=O)c1ccccc1n2C | 51.3 | > 100 | 96.1 | > 100 | > 100 |  |  |  | 
4 | C[C@]12Cc3cnn(-c4ccc(F)cc4)c3NC1CC[C@@H]1C2CC[C@@]2(C)C1CC[C@@H]2O (stereo partly drawn) | 15 | 26.1 | 21.7 | 27.2 | 18.3 |  |  |  | 
5 | Cc1cc(-c2nc3ccccc3s2)ccc1N | > 66.8 | > 100 | > 88.5 | > 100 | > 93 |  |  |  | 
6 | CCCCSC1=N/C(=C\c2ccc(N(C)C)cc2)C(NN)=N1 |  | > 100 | > 100 | > 100 | > 100 |  |  |  | 
7 | Cc1cccc(CC(Cc2c(C)cccc2C(=O)O)C(=O)O)c1 (stereo not drawn) | 37.2 | > 100 | > 100 | > 100 | > 100 |  |  |  | 
8 | N#CC(C#N)=C(N)/C(C#N)=C/c1ccc2ccccc2n1 | 51 | 33 |  | 43.2 | > 100 |  |  |  | 
9 | O=C(Nc1nn(C(=O)c2ccc(Cl)cc2)c(=O)s1)c1ccc(Cl)cc1 | > 100 | > 100 | > 100 | > 100 | > 100 |  |  |  | 
10 | CC1(C)CC23CC(C)(C)c4cccc(c42)OCc2ccc4ccc5ccc(nc5c4n2)COc2cccc1c23 | > 50 | > 50 | > 50 | > 50 | > 50 |  |  |  | 
11 | Cc1ccc(N=N/C(=N/NC(=O)c2cc(Cl)ccc2C(=O)c2ccccc2)c2ccc(N(CCC#N)CCC#N)cc2C)cc1 | 33.6 | > 100 | > 100 | > 100 | 43.9 |  |  |  | 
12 | COc1ccc(/C=C2\CCC(C)/C(=C\c3ccc(OC)c(OC)c3)C2=O)cc1OC (stereo not drawn) | 17.5 |  | > 100 | 48.1 |  |  |  |  | 
13 | CC(C)(C)OC(=O)N(O)CCCn1cnc2c(N)ncnc21 | > 100 | > 100 | > 100 | > 100 | > 100 |  |  |  | 
14 | Nc1nc(Cl)cc(OCC2(CO)CC(OCc3ccccc3)C2)n1 (stereo not drawn) |  |  |  |  |  | 23.9 | 95.7 | 55 | 96.9
15 | CCCCOC(=O)NC(Nc1cccc(C(F)(F)F)c1)(C(F)(F)F)C(F)(F)F | > 100 | > 100 | > 100 | > 100 |  |  |  |  | 
16 | CCOC(=O)C(C(=O)c1ccccc1C(=O)OC)=P(c1ccccc1)(c1ccccc1)c1ccccc1 | > 10 | > 10 | > 10 | > 10 | > 10 |  |  |  | 

Row | SMILES | TGI (SK-MEL-5 melanoma) [µM] | TGI (HOP-62 NSCLC) [µM] | TGI (U251 CNS) [µM] | TGI (SK-MEL-28 melanoma) [µM] | TGI (HCC-2998 colon) [µM] | GI50 (SK-MEL-5 melanoma) [µM] | GI50 (HOP-62 NSCLC) [µM] | GI50 (U251 CNS) [µM] | GI50 (SK-MEL-28 melanoma) [µM]
17 | CC(=O)NNc1nc(C)c(C(/C=C/c2ccc([N+](=O)[O-])cc2)=N/NC(N)=S)s1 | > 100 | > 100 | > 100 | > 100 | > 100 |  |  |  | 
18 | CC(C)(C)c1cc2c(O)c(c1)Cc1cc(C(C#N)(Cc3ccc4ccccc4c3)Cc3ccc4ccccc4c3)cc(c1O)Cc1cc(C(C)(C)C)cc(c1O)Cc1cc(C(C#N)(Cc3ccc4ccccc4c3)Cc3ccc4ccccc4c3)cc(c1O)C2 | > 100 | > 100 | > 100 | > 100 | > 100 |  |  |  | 
19 | Nc1ncc(Cl)c(NCC2(CO)CC(CCc3ccccc3)C2)n1 (stereo not drawn) | > 100 | > 100 | > 100 | > 100 | > 100 |  |  |  | 
20 | Cc1ccc2c(c1)C(=O)N1CCC[C@H]1C=N2 | 26.7 | > 83.1 | > 85.2 | 52 | 45.6 |  |  |  | 
21 | O=C(NNC(c1ccccc1)C(F)(F)F)c1ccncc1 (stereo not drawn) | > 100 | > 100 | > 100 | > 100 | > 100 |  |  |  | 
22 | COc1cc(C(=O)O[C@@H]2[C@@H](OC(=O)c3cc(OC)c(OC)c(OC)c3)[C@@H](OC)O[C@@H]3CO[C@@H](c4ccccc4)O[C@@H]23)cc(OC)c1OC | > 100 | > 100 | > 100 | > 100 | > 100 |  |  |  | 
23 | CCN(CC)C(=S)SS(=O)(=O)c1ccc(Cl)cc1 | 30.9 | 65.7 | 30.4 | 34.4 | > 100 |  |  |  | 
24 | CC1=CCC2C3(C)CCC2(C(C)C)C1C3 (stereo not drawn) (tested in a mixture with another compound) |  | 57.5 | 50.8 | 88.6 | 49.5 |  |  |  | 
25 | CCN(CC)CCN1C(=O)c2c(c(-c3ccccc3)c3ccccc3c2-c2ccccc2)C1=O | > 100 | > 100 | > 100 |  | > 100 |  |  |  | 
26 | CN(C)Cc1cc(C(C)(C)C)ccc1-c1ccc(C(C)(C)C)cc1CN(C)C | > 100 | > 100 | > 100 | > 100 | 23.5 |  |  |  | 
27 | Cc1cc(N=Nc2c(O)ccc3ccccc23)ccc1N=Nc1cccc([N+](C)(C)C)c1 | > 23.7 | 43.2 | 14.1 | 62.3 | > 100 |  |  |  | 
28 | CN1CCCCC(C#N)(c2ccccc2)CC1 (stereo not drawn) | > 100 | > 100 | > 100 | > 100 | > 100 |  |  |  | 
29 | CCOC(=O)c1nc2ccccc2nc1Nc1ccc(OC)c(OC)c1 | > 100 | > 100 | > 100 | > 100 | > 100 |  |  |  | 
30 | COC(=O)[C@H](Cc1ccc(O)c(Br)c1)NC(=O)[C@H](Cc1ccc(O)cc1)NC(=O)OC(C)(C)C (Boc-Tyr-[Tyr(3-Br)]-OMe) |  | > 100 |  | > 100 | > 100 |  |  |  | 
31 | C/C=C1/CN2CCC3(O)c4ccccc4N4C=C(C(=O)OC)C1CC2C43O (stereo not drawn) | > 100 | > 100 | > 100 | > 100 | > 100 |  |  |  | 
32 | C/C1=C/C(C)CC(C)OC(=O)C(C)NC(=O)C(Cc2ccc(O)c(I)c2)N(C)C(=O)C(C)NC(=O)C(C)C1 (stereo not drawn) | 11.7 | < 0.01 | 0.892 |  | 5.2 |  |  |  | 
